Results on 1 substance are retold here after patent US20260258368A1, “METABOLIC SELECTION FOR GLYCOGEN-STORING CELLS IN VITRO” (The Board of Trustees of the Leland Stanford Junior …, priority 2023, published 2026).

What all share (assay): Poly(I:C) treatment, interferon-stimulated gene expression (qPCR, RNA-seq)
Holding throughout (conditions): 50 μg/mL poly(I:C), 1 day
In general terms: Real-time PCR tracks product formation cycle by cycle.

In test [1] the test system is hPSC-derived hepatocytes (H1 and H7 hPSC lines). It is filed as cell-based, human. The source says: (§1) RNA extraction and bulk-population RNA-seq. Cells were lysed using Zymo RNA lysis buffer and total RNA was extracted from cells using the Zymo Quick RNA kit per the manufacturer's instructions. High-quality RNA with RNA integrity number (RIN)>7 was used for library construction. For each cell-type, we included 2-3 technical replicates, generally defined as different wells of the same cell-type generated in the same differentiation experiment. In one experiment, 46 RNA-seq libraries were multiplexed and then sequenced on 2 lanes of the Illumina NovaSeq 6000 S4 sequencer by Novogene to generate 150-bp paired-end reads. In a second experiment, 36 RNA-seq libraries were multiplexed and then sequenced on 1 lane of the NovaS4 sequencer by Novogene to generate 150-bp paired-end reads.
(§2) Poly(I:C) treatment. HepG2 cells, HuH7 cells, metabolically-selected H1 hPSC-and H7 hPSC-derived hepatocytes, and primary human hepatocytes (Lonza and Gibco) were thawed in a 37° C. water bath for 3 minutes. After thawing, HepG2, HuH7, and hPSC-derived hepatocytes were quenched in warm DMEM/F12 to dilute the cryopreservation solution. After thawing, primary human hepatocytes, obtained from either Lonza or Gibco, were respectively quenched in MCHT50 and CHRM to dilute the cryopreservation solution. Thawed cells were centrifuged at 1500 rpm for 5 mins and the supernatant was discarded, leaving the cell pellets. The cell pellets were resuspended in the aforementioned hepatocyte maintenance media (Lonza hepatocyte culture medium supplemented with 10 μM Dexamethasone, 10 μM Forskolin, 2 μM RO4929097, 200 μg/ml AA2P, 10 μg/ml Insulin, and 1 μM Thiazovivin [DFRAIT]). For each cell-type, ~400,000 cells were plated per well of 24-well plate that had been coated with collagen 1 (Corning Biocoat). For hPSC-derived hepatocytes, the collagen 1-coated wells were briefly treated with Geltrex prior to plating cells. The media was replenished every day for 2 days and on the third day, hepatocyte maintenance media+ DFRAIT+50 μg/ml poly(I:C) was added for 24 hours. Cells were then lysed with RNA lysis buffer (Zymo) and processed with an RNA extraction kit (Zymo) to extract RNA for qPCR and RNA-seq.

The test system of another test is HepG2 liver cancer cells. In kind it is cell-based, human.
Text: as §1, §2

The next test has as its system HuH7 liver cancer cells. It is filed as cell-based, human.
Text: as §1, §2

Test [2] has as its system primary adult human hepatocytes (Lonza, Gibco). In kind it is cell-based.
Text: as §1
Poly(I:C) treatment. HepG2 cells, HuH7 cells, metabolically-selected H1 hPSC-and H7 hPSC-derived hepatocytes, and primary human hepatocytes (Lonza and Gibco) were thawed in a 37° C. water bath for 3 minutes. After thawing, HepG2, HuH7, and hPSC-derived hepatocytes were quenched in warm DMEM/F12 to dilute the cryopreservation solution. After thawing, primary human hepatocytes, obtained from either Lonza or Gibco, were respectively quenched in MCHT50 and CHRM to dilute the cryopreservation solution. Thawed cells were centrifuged at 1500 rpm for 5 mins and the supernatant was discarded, leaving the cell pellets. […]

Turning to poly(I:C), the “ISG and inflammatory cytokine expression change (RNA-seq)” value is “significant ISG and inflammatory cytokine upregulation” in test [1]; “minimal changes” in the test on HepG2 liver cancer cells; “minimal changes” in the test on HuH7 liver cancer cells; “significant ISG and inflammatory cytokine upregulation” in test [2]. For the same substance, the “induction of interferon-stimulated genes MX1, VIPERIN, IFIT1, IFIT2, IFIT3, OAS1, OASL, ISG15 (qPCR)” value in test [1] (H1- and H7-derived hepatocytes) is “strongly induced”. Also, the “upregulation of interferon-stimulated genes (qPCR)” value was “largely failed to upregulate” in the test on HepG2 liver cancer cells, “largely failed to upregulate” in the test on HuH7 liver cancer cells and “upregulated ISGs” in test [2] (two hepatocyte sources).
